Experimental data from patent publication US20250074889A1, “Novel Aminobenzene Derivative Having Cancer Cell Growth Inhibitory Effect, and Preventive or Therapeutic Pharmaceutical Composition Containing Same as Active Ingredient” (Daewoong Pharmaceutical Co., Ltd., priority 2022, published 2025).

What was measured:
Format in all cases: cell-based
[1] = system: transcription factor TEAD; experiment: Activity inhibition test of transcription factor TEAD (ONE-Glo luciferase, TEAD reporter-MCF7 cell line); conditions: Homo sapiens; TEAD Reporter-MCF7 cells, 24 hours treatment, luciferase luminescence
Procedure: The transcription factor TEAD activity of the compounds prepared in Examples was measured by the ONE-Glo™ Luciferase assay (Promega, Catalog #E6110) method using the Hippo Pathway TEAD reporter-MCF7 recombinant cell line (BPS Bioscience, Catalog #60618).
Specifically, the TEAD Reporter-MCF7 cell line contains the firefly luciferase gene whose expression is regulated under the control of TEAD response elements in the MCF7, which is a human breast cancer cell line. In the cell line, a non-phosphorylated YAP/TAZ exists in the nucleus in a non-stressed condition, which continuously induces expression of the luciferase reporter.
TEAD Reporter-MCF7 cells were prepared in 100 μL of cell culture medium (MEM medium, 10% FBS, 1% P/S, 400 μg/mL Geneticin, 1% […], 1 mM NA pyruvate, 10 μg/mL Insulin) in a white clear bottom 96-well microplate. The prepared plate was incubated in a 5% CO2 incubator at 37° C. for 24 hours, and then the previously prepared compounds of Examples were finally treated at concentrations of 0.001, 0.01, 0.1, 1, and 10 µM, which were repeated three times for all treatment solutions. The plates treated with the compounds of Examples were incubated in a 5% CO2 incubator at 37° C. for 24 hours. 100 μL/well of the substrate aqueous solution containing luciferin was added to a white clear-bottom 96 well microplate, thereby initiating an enzyme reaction. The reaction was performed at room temperature for 5 minutes, and the luminescence (integration time 1000 ms) was measured using a Flexstation3 multi-mode microplate reader. In accordance with the instructions for the ONE-Glo™ Luciferase Assay, the luciferase enzyme activity, which represents the activity of the transcription factor TEAD, was measured by a chemiluminescence method, and the inhibitory activity of the compound according to the present invention was calculated. The results of each compound were analyzed using Microsoft Excel, and the IC50 values were calculated by GraphPad Prism software.

[2] = system: NCI-H226 human mesothelioma cell line; experiment: Cell growth inhibition test (CellTiter-Glo), NCI-H226; conditions: NCI-H226 cells
Procedure: (§1) The cell growth for the compounds prepared in Examples was measured by CellTiter-Glo® Luminescent Cell Viability (Promega, Catalog #G7571) method using NCI-H226 (addexbio), NCI-H28 (Korea Cell Line Bank) and MSTO-211H (elabscience) human mesothelioma cell lines. This evaluation method is a method in which when luciferase enzyme is activated by ATP flowing out from living cells, it reacts with a luciferin substrate, and the enzyme activity at this time is measured to confirm cell viability.
(§2) Specifically, NCI-H226, NCI-H28, and MSTO-211H cells were prepared in 100 μL of cell culture medium (RPMI medium, 10% FBS, 1% P/S, 4.5 g/L D-Glucose, 2.383 g/L HEPES Buffer, L-Glutamine, 1.5 g/L Sodium Bicarbonate, 110 mg/L Sodium pyruvate) in a white clear bottom 96-well microplate. The prepared plate was incubated in a 5% CO2 incubator at 37° C. for 24 hours, and then the previously prepared compounds of Examples were finally treated at concentrations of 0.001, 0.01, 0.1, 1, and 10 μM, which was repeated three times for all treatment solutions. The plates treated with the compounds of Examples were incubated in a 5% CO2 incubator at 37° C. 100 μL/well of the substrate aqueous solution containing luciferin was added to a white clear-bottom 96 well microplate, thereby initiating an enzyme reaction. The reaction was performed at room temperature in the dark for 10 minutes, and the luminescence was measured using a Flexstation3 multi-mode microplate reader. In accordance with the instructions for the CellTiter-Glo™ Luminescednt Cell Viability, the luciferase enzyme activity, which represents the amount of ATP, was measured by a chemiluminescence method, and the inhibitory activity of the compounds according to the present invention was calculated. The results of each compound were analyzed using Microsoft Excel, and the IC50 values were calculated using GraphPad Prism software.

[3] = system: MSTO-211H human mesothelioma cell line; experiment: Cell growth inhibition test (CellTiter-Glo), MSTO-211H; conditions: MSTO-211H cells
Procedure: as §1, §2

[4] = system: NCI-H28 human mesothelioma cell line; experiment: Cell growth inhibition test (CellTiter-Glo), NCI-H28; conditions: NCI-H28 cells
Procedure: as §1, §2

SMILES | IC50 [1] [nM] | IC50 [2] [nM] | IC50 [3] [µM] | IC50 [4] [µM]
C=CC(=O)Nc1ccc(NC2CCCCC2)c(-c2ccccc2)c1 [Example 1, N-(6-(cyclohexylamino)-[1,1′-biphenyl]-3-yl)acrylamide] | 42 | 132 |  | 
C=CC(=O)Nc1ccc(NC2CCCCC2)c(-c2ccccn2)c1 [Example 2, N-(4-(cyclohexylamino)-3-(pyridin-2-yl)phenyl)acrylamide] | 12.3 | 46 |  | 
C=CC(=O)Nc1ccc(N[C@H]2CC[C@@H](C(F)(F)F)CC2)c(-c2ccccn2)c1 [Example 3, N-(3-(pyridin-2-yl)-4-((cis-4-(trifluoromethyl)cyclohexyl)amino)phenyl)acrylamide] | 3.7 | > 10000 |  | 
C=CC(=O)Nc1ccc(Nc2cc(Cl)c(Cl)cn2)c(-c2ccccn2)c1 [Example 8, N-(4-((4,5-dichloropyridin-2-yl)amino)-3-(pyridin-2-yl)phenyl)acrylamide] | 15.4 | 14 |  | 
C=CC(=O)Nc1ccc(NCc2ccc(F)cc2)c(-c2ccccc2)c1 [Example 11, N-(6-((4-fluorobenzyl)amino)-[1,1′-biphenyl]-3-yl)acrylamide] | 28.2 | 129 |  | 
C=CC(=O)Nc1ccc(NCc2ccc(F)cc2)c(-c2ccccn2)c1 [Example 12, N-(4-((4-fluorobenzyl)amino)-3-(pyridin-2-yl)phenyl)acrylamide] | 2.4 | 1250 |  | 
C=CC(=O)Nc1ccc(Nc2cc(Cl)c(Cl)cn2)c(-c2ccncn2)c1 [Example 16, N-(4-((4,5-dichloropyridin-2-yl)amino)-3-(pyrimidin-4-yl)phenyl)acrylamide] | 69.1 | 148 |  | 
C=CC(=O)Nc1ccc(NCCc2nccs2)c(/C=C/c2ccc(F)cc2)c1 [Example 23, (E)-N-(3-(4-fluorostyryl)-4-((2-(thiazol-2-yl)ethyl)amino)phenyl)acrylamide] | 48 | 55 |  | 
C=CC(=O)Nc1cnc(NCCc2nccs2)c(/C=C/c2ccc(F)cc2)c1 [Example 27, (E)-N-(5-(4-fluorostyryl)-6-((2-(thiazol-2-yl)ethyl)amino)pyridin-3-yl)acrylamide] | 30 | 985 |  | 
C=CS(=O)(=O)Nc1cnc(NCCc2nccs2)c(/C=C/c2ccc(F)cc2)c1 [Example 28] | 28.6 | 875 |  | 
C#Cc1ccc(Nc2ccc(NC(=O)C=C)cc2-c2ccn(C)n2)nc1 [Example 34, N-(4-((5-ethynylpyridin-2-yl)amino)-3-(1-methyl-1H-pyrazol-3-yl)phenyl)acrylamide] | 5.7 | 31.4 |  | 
C=CC(=O)Nc1ccc(Nc2ccc(C(F)(F)F)cc2)c(-c2ccn(C)n2)c1 [Example 42, N-(3-(1-methyl-1H-pyrazol-3-yl)-4-((4-(trifluoromethyl)phenyl)amino)phenyl)acrylamide] | 7 | 4.7 |  | 
C=CC(=O)Nc1ccc(Nc2ccc(C(F)(F)F)c(F)c2F)c(-c2cn(C)cn2)c1 [Example 44, N-(4-((2,3-difluoro-4-(trifluoromethyl)phenyl)amino)-3-(1-methyl-1H-imidazol-4-yl)phenyl)acrylamide] | 8 | 3.9 |  | 
C=CC(=O)Nc1ccc(Nc2ccc(OC(F)(F)F)cc2)c(-c2cn(C)cn2)c1 [Example 45, N-(3-(1-methyl-1H-imidazol-4-yl)-4-((4-(trifluoromethoxy)phenyl)amino)phenyl)acrylamide] | 113 | 33.8 |  | 
C=CC(=O)Nc1ccc(Nc2ccc(Cl)cc2)c(-c2cn(C)cn2)c1 [Example 47, N-(4-((4-chlorophenyl)amino)-3-(1-methyl-1H-imidazol-4-yl)phenyl)acrylamide] | 3.9 | 3.3 |  | 
C=CC(=O)Nc1ccc(Nc2ccc(Br)c(C)n2)c(-c2cn(C)cn2)c1 [Example 48, N-(4-((5-bromo-6-methylpyridin-2-yl)amino)-3-(1-methyl-1H-imidazol-4-yl)phenyl)acrylamide] | 45 | 10.3 |  | 
C=CC(=O)Nc1ccc(Nc2ccc(Cl)c(C)n2)c(-c2cn(C)cn2)c1 [Example 49, N-(4-((5-chloro-6-methylpyridin-2-yl)amino)-3-(1-methyl-1H-imidazol-4-yl)phenyl)acrylamide] | 258 | 18.8 |  | 
C=CC(=O)Nc1ccc(Nc2ccc(Cl)cn2)c(-c2cn(C)cn2)c1 [Example 50, N-(4-((5-chloropyridin-2-yl)amino)-3-(1-methyl-1H-imidazol-4-yl)phenyl)acrylamide] | 88 | 10.4 |  | 
C=CC(=O)Nc1ccc(Nc2cc(C(F)(F)F)ccn2)c(-c2ccn(C)n2)c1 [Example 54, N-(3-(1-methyl-1H-pyrazol-3-yl)-4-((4-(trifluoromethyl)pyridin-2-yl)amino)phenyl)acrylamide] | 23.4 | 11.8 |  | 

Now from value to compound:

IC50 [1] [nM] | IC50 [2] [nM] | IC50 [3] [µM] | IC50 [4] [µM] | SMILES
53.5 | 122 |  |  | C=CC(=O)Nc1ccc(Nc2ncc(C(F)(F)F)cc2Cl)c(-c2ccccn2)c1 [Example 7, N-(4-((3-chloro-5-(trifluoromethyl)pyridin-2-yl)amino)-3-(pyridin-2-yl)phenyl)acrylamide]
80 | 26 |  |  | C=CC(=O)Nc1ccc(Nc2ncc(C(F)(F)F)cc2Cl)c(-c2cn(C)cn2)c1 [Example 9, N-(4-((3-chloro-5-(trifluoromethyl)pyridin-2-yl)amino)-3-(1-methyl-1H-imidazol-4-yl)phenyl)acrylamide]
23 | 10 |  |  | C=CC(=O)Nc1ccc(Nc2cc(Cl)c(Cl)cn2)c(-c2cn(C)cn2)c1 [Example 10, N-(4-((4,5-dichloropyridin-2-yl)amino)-3-(1-methyl-1H-imidazol-4-yl)phenyl)acrylamide]
314 |  | > 10 | 3.11 | C=CC(=O)Nc1ccc(Nc2cc(C(F)(F)F)ccn2)c(-c2cn(C)cn2)c1 [Example 31, N-(3-(1-methyl-1H-imidazol-4-yl)-4-((4-(trifluoromethyl)pyridin-2-yl)amino)phenyl)acrylamide]
10 | 6 |  |  | C=CC(=O)Nc1cnc(Nc2ccc(C(F)(F)F)cc2)c(-c2cn(C)cn2)c1 [Example 41, N-(5-(1-methyl-1H-imidazol-4-yl)-6-((4-(trifluoromethyl)phenyl)amino)pyridin-3-yl)acrylamide]
33 | 7.4 |  |  | C=CC(=O)Nc1ccc(Nc2ccc(C(F)(F)F)c(Cl)c2)c(-c2cn(C)cn2)c1 [Example 43, N-(4-((3-chloro-4-(trifluoromethyl)phenyl)amino)-3-(1-methyl-1H-imidazol-4-yl)phenyl)acrylamide]
28 | 13.1 |  |  | C=CC(=O)Nc1ccc(Nc2cc(F)c(C(F)(F)F)c(F)c2)c(-c2cn(C)cn2)c1 [Example 46, N-(4-((3,5-difluoro-4-(trifluoromethyl)phenyl)amino)-3-(1-methyl-1H-imidazol-4-yl)phenyl)acrylamide]
5 | 11 |  |  | C=CC(=O)Nc1ccc(Nc2ncc(C(F)(F)F)cc2F)c(-c2ccn(C)n2)c1 [Example 56, N-(4-((3-fluoro-5-(trifluoromethyl)pyridin-2-yl)amino)-3-(1-methyl-1H-pyrazol-3-yl)phenyl)acrylamide]
